From patent US20260248774A1, “INHIBITORS OF BACTERIAL TYPE III SECRETION SYSTEM” (MICROBIOTIX, INC., priority 2022, published 2026)
Read-outs that look alike come from different tables or passages of the source.

Experiments:
[1] = tested on: P. aeruginosa T3SS-mediated secretion of ExoS-β-lactamase fusion protein; assay: Effector-β-lactamase (ExoS-βLA) reporter assay of T3SS-mediated secretion; assay type: cell-based, Pseudomonas aeruginosa; conditions: read-out: ExoS-BLA IC50
Description: Effector-β-Lactamase (βLA) Reporter Assay of T3SS-Mediated Secretion with an Absorbency Signal.
A gene encoding the exoS promoter/regulatory region and an ExoS-β-lactamase (βLA) fusion protein (comprised of the full length P. aeruginosa T3SS effector ExoS fused in reading frame to the TEM-1 β-lactamase gene lacking secretion signal codons) was constructed by splicing by overlap extension PCR (SOE-PCR) (Choi and Schweizer, 2005, BMC Microbiol., 5:30), sequence confirmed, cloned into miniCTX and introduced into P. aeruginosa strain PAO1 to generate strains MDM1746 and MDM1838 as previously described for strain MDM1710 (Bowlin et al., 2014, Antimicrob Agents Chemother., 58:2211-2220). Secretion of ExoS-β-lactamase fusion protein following EGTA addition to induce the T3SS operons was detected by measuring the hydrolysis of the chromogenic β-lactamase substrate nitrocefin in clear 96-well microplates in a modification of a previously described assay (Lee, et al., 2007, Infect. Immun., 75:1089-98). Cells of strain MDM1746, or negative control MDM1838 (which fails to carry out T3SS secretion due to ΔpscF), were sub-cultured in the morning from overnight growths in LBG into 0.1 ml of LBGE with or without test compounds and grown for 150 min. Nitrocefin (100 μg/mL final) was added, and A490 measurements taken every minute for 15 min in a Victor^3V 1420 Multilabel HTS Counter (PerkinElmer). Slopes were calculated as a relative measure of the quantity of the effector-βLA fusion protein secreted and were absolutely dependent on induction with EGTA, and the presence of a functional pscF gene in the P. aeruginosa cells. Typical signal: background ratios were 6-10.

[2] = tested on: T3SS-mediated translocation of ExoU by P. aeruginosa strain MDM1561 (PA99U) into CHO cells; assay: P. aeruginosa ExoU-dependent CHO cell killing assay for T3SS-mediated translocation; assay type: cell-based, Pseudomonas aeruginosa; conditions: for EC50: read-out: Translocation EC50; for potency of inhibition of T3SS-mediated translocation: assessment in text on Table 1
Description: P. aeruginosa ExoU-Dependent CHO Cell Killing.

[3] = tested on: P. aeruginosa T3SS-mediated secretion (exoT-luxCDABE reporter strain MDM852); assay: Luciferase (exoT-lux) transcriptional reporter assay of T3SS-mediated secretion; assay type: cell-based, Pseudomonas aeruginosa
Description: Luciferase Transcriptional Reporter Assay of T3SS-Mediated Secretion with a Luminescent Signal.
A transcriptional fusion of the Photorhabdus luminescens lux operon (luxCDABE) to P. aeruginosa PAO1 T3SS effector gene exoT (PA0044) was constructed and used to build strain MDM852 as described previously (Aiello et al., 2010, Antimicrob Agents Chemother, 54:1988-1999). Induction of T3SS operons by Ca^++ depletion due to EGTA addition results in secretion of the T3SS negative regulator ExsE and the production of high levels of T3SS components including the luxCDABE gene products, which results in luminescence that is easily detected by a microplate reader. Inhibition of T3SS-mediated secretion of the negative regulator ExsE by a small molecule inhibitor causes reduced production of luxCDABE gene products and reduced luminescence. For inhibitor IC50 testing, compounds were added to a 96-well microplate in a concentration dilution series. Reporter strain MDM852 was grown at 37° C. in LBG to OD600 ~0.025-0.05, transferred into the microplate (50 uL/well) containing test compounds and EGTA (5 uL of 0.1 M stock solution), which was covered with a translucent gas-permeable seal (Abgene, Inc., Cat. No. AB-0718). […] Plates were incubated at room temperature for 300 min. Then, luminescence was measured in an Envision Multilabel microplate reader (PerkinElmer). The screening window coefficient, Z′-factor (see Zhang, et al., 1999, J. Biomol. Screen., 4:67-73), defined as the ratio of the positive and negative control separation band to the signal dynamic range of the assay, averaged 0.7 for the assay.

[4] = Kinetic aqueous solubility (nephelometric assay); assay type: physicochemical; conditions: for Sol: Table 1; for solubility kinetic: kinetic from dmso stock, Table 9, kinetic solubility in water (nephelometric assay)
Description: Solubility. The maximum aqueous solubility of analogs will be initially determined by nephelometry using a published method (44).

[5] = Mammalian cytotoxicity (CC50), MTS conversion; assay type: cell-based, human; conditions: human
Protocol: Determination of Mammalian Cytotoxicity.
Following incubation for 3 days at 37° C. in VP-SFM, cell viability was measured with the vital tetrazolium salt stain 3-(4,5-dimethylthiazol-2-yl)-2,5 diphenyltetrazolium bromide according to the manufacturer's instructions (Promega, Madison, Wisconsin). Values were determined in triplicate using dilutions of inhibitory compound from 100 μM to 0.2 μM.

[6] = read-out: LUX Sec IC50, Table 1
[7] = HeLa cells, Table 1, HeLa, read-out: Cytotox-HeLa CC50
[8] = Table 9, cytotoxicity vs. HeLa cells, read-out: Cytotox CC50

Row | SMILES | IC50 ([1]; Table 1) [µM] | EC50 ([2]; Table 1) [µM] | IC50 [3, 6] [µM] | solubility kinetic [4] [µM] | CC50 at 3 days [5, 8] [µM] | further results
1 | CC(Oc1ccc(Cl)cc1Cl)C(=O)NCc1ccc2c(c1)OCO2 (stereo not drawn) [MBX-1641, N-(benzo[d][1,3]dioxol-5-ylmethyl)-2-(2,4-dichlorophenoxy)propanamide, reference compound] | 10 | 15 | 4.7 |  |  | IC50 ([1]; Table 6): 10 µM; EC50 ([2]; Table 6): 15 µM; IC50 ([3]; read-out: LUX IC50, Table 6): 4.7 µM
2 | CCC(Oc1ncc(Cl)cc1Cl)C(=O)NCc1ccc2c(c1)OCO2 (stereo not drawn) [MBX-2263] | 2 | 17 | 2.7 |  |  | Sol [4]: 25 µM; solubility for formulation ([4]; assessment in text on Table 1): not soluble enough; CC50 at 3 days [5, 7]: > 100 µM
3 | CCC(Oc1ncc(Cl)cc1Cl)C(=O)NCc1ccc(F)cc1 (stereo not drawn) [MBX-2264] | 2 | > 35 | 2 |  |  | potency of inhibition of T3SS-mediated translocation [2]: not quite potent enough; Sol [4]: 200 µM; CC50 at 3 days [5, 7]: 85 µM
4 | CCC(Oc1ncc(Cl)cc1Cl)C(=O)NCc1ccc2sccc2c1 (stereo not drawn) [MBX-2359, reference compound] | 1.5 |  | 1.3 |  |  | IC50 ([1]; Table 6): 1.5 µM; IC50 ([3]; read-out: LUX IC50, Table 6): 1.3 µM
5 | CC(Oc1ccc(Cl)cc1Cl)C(=O)NC(CO)c1ccc(F)cc1 (stereo not drawn) [MBX-2625] | 5 | 22 | 7.1 |  |  | 
6 | CC(Oc1ccc(Cl)cc1Cl)C(=O)NCC(O)c1ccc(F)cc1 (stereo not drawn) [MBX-2785] | 15 | 25 | 18 |  |  | potency of inhibition of T3SS-mediated translocation [2]: not quite potent enough
7 | CC(=O)Nc1ccc(CCNC(=O)C(C)Oc2ccc(Cl)cc2Cl)cc1 (stereo not drawn) [MBX-2837] | 9 | 13 | 3.5 |  |  | 
8 | CC[C@@H](Oc1ncc(Cl)cc1Cl)C(=O)NC(CO)Cc1ccc(F)cc1 (stereo partly drawn) [MBX-3323] | 5 | 13 | 5.2 |  |  | potency of inhibition of T3SS-mediated translocation [2]: not quite potent enough
9 | CC[C@@H](Oc1ncc(Cl)cc1Cl)C(=O)NCCc1ccc(NC(C)=O)cc1 [MBX-3337] | 1.2 | 4.8 | 1.4 |  |  | 
10 | CC[C@@H](Oc1ncc(Cl)cc1Cl)C(=O)NCc1cccc(CN)c1 [MBX-4565] | 9 | 20 | 8.3 |  |  | 
11 | CC[C@@H](Oc1ncc(Cl)cc1Cl)C(=O)N[C@@H](CO)Cc1ccc(F)cc1 [MBX-4567] | 14 | 60 | 8.5 |  |  | potency of inhibition of T3SS-mediated translocation [2]: not quite potent enough
12 | CC[C@@H](Oc1ncc(Cl)cc1Cl)C(=O)NCc1cccc(C(=O)NC2CNC2)c1 [MBX-5031] | 1.7 | 1.7 | 0.2 |  |  | 
13 | CC[C@@H](Oc1ncc(Cl)cc1Cl)C(=O)NCc1cccc(C(=O)NC2CN(CCC(=O)[O-])C2)c1.[Li+] [MBX-5427A] |  |  |  | 100 | ≥ 200 | 
14 | CC[C@@H](Oc1ncc(Cl)cc1Cl)C(=O)NCc1cccc(C(=O)NC2CN(CCCC(=O)[O-])C2)c1.[Li+] [MBX-5430A] |  |  |  | 200 | ≥ 200 | 
15 | CC[C@@H](Oc1ncc(Cl)cc1Cl)C(=O)NCc1cccc(NC(=O)NC2CN(CCC(=O)[O-])C2)c1.[Li+] [MBX-5442A] |  |  |  | 200 | ≥ 200 | 
16 | CC[C@@H](Oc1ncc(Cl)cc1Cl)C(=O)NCc1cccc(C(=O)NC2CN(CC(=O)[O-])C2)c1.[Li+] [MBX-5454A] |  |  |  | 200 | ≥ 100 | 
17 | CC[C@@H](Oc1ncc(Cl)cc1Cl)C(=O)NCc1cccc(CNC2CC(C(=O)[O-])C2)c1.[Li+] (stereo partly drawn) [MBX-5456A] |  |  |  | 200 | 107 | 
18 | CC[C@@H](Oc1ncc(Cl)cc1Cl)C(=O)NCc1cccc(C(=O)NCC2CC3(C2)CN(CCC(=O)[O-])C3)c1.[Li+] [MBX-5522A] |  |  |  | ≥ 400 |  | 
19 | CC[C@@H](Oc1ncc(Cl)cc1Cl)C(=O)NCc1cccc(C(=O)NC2CC3(C2)CN(CCCC(=O)[O-])C3)c1.[Li+] [MBX-5524A] |  |  |  | ≥ 400 |  | 
20 | CC[C@@H](Oc1ncc(Cl)cc1Cl)C(=O)NCc1cccc(C(=O)NC2CC3(C2)CN(CC(=O)[O-])C3)c1.[Li+] [MBX-5527A] |  |  |  | ≥ 400 |  | 
21 | CC[C@@H](Oc1ncc(Cl)cc1Cl)C(=O)NCc1cccc(C(=O)N2CC3(CC(NCCC(=O)[O-])C3)C2)c1.[Li+] [MBX-5529A] |  |  |  | ≥ 400 |  | 
22 | CC[C@@H](Oc1ncc(Cl)cc1Cl)C(=O)NCc1cccc(CC(=O)NC2CC3(C2)CN(CCC(=O)[O-])C3)c1.[Li+] [MBX-5548A] |  |  |  | 200 |  | 
23 | CC[C@@H](Oc1ncc(Cl)cc1Cl)C(=O)NCc1cccc(NC(=O)N2CC3(CN(CC(C)(C)C(=O)[O-])C3)C2)c1.[Li+] [MBX-7061A] |  |  |  | 1.1 |  | 
24 | CC[C@@H](Oc1ncc(Cl)cc1Cl)C(=O)NCc1cccc(NC(=O)N2CC3(CN(CCC(=O)[O-])C3)C2)c1.[Li+] [MBX-7062A] |  |  |  | 3.5 |  | 
25 | CC[C@@H](Oc1ncc(Cl)cc1Cl)C(=O)NCc1cccc(NC(=O)NCC2CN(CC(=O)O)C2)c1 [MBX-7438A] |  |  |  |  | ≥ 200 | 
26 | CC[C@@H](Oc1ccc(Cl)c(Cl)c1Cl)C(=O)NCc1cccc(NC(=O)NC2CC3(C2)CN(CC(=O)O)C3)c1 [MBX-7476A] |  |  |  |  | ≥ 200 | 
27 | CC[C@@H](Oc1ccc(Cl)c(Cl)c1Cl)C(=O)NCCc1cccc(NC(=O)NC2CC3(C2)CN(CCC(=O)O)C3)c1 [MBX-7477A] |  |  |  |  | ≥ 200 | 
28 | CC[C@@H](Oc1ccc(Cl)c(Cl)c1Cl)C(=O)NCCc1cccc(NC(=O)NC2CC3(C2)CN(CC(=O)O)C3)c1 [MBX-7478A] |  |  |  |  | ≥ 200 | 
29 | CC[C@@H](Oc1ncc(Cl)cc1Cl)C(=O)NCc1cccc(NC(=O)NCCNCC(=O)O)c1 [MBX-7497A] |  |  |  |  | ≥ 200 | 
30 | CC[C@@H](Oc1ncc(Cl)cc1Cl)C(=O)NCc1cccc(NC(=O)NC2COCC(NCCC(=O)O)C2)c1 (stereo partly drawn) [MBX-7531A] |  |  |  |  | ≥ 200 | 
